Results: PMC4621749 (The Journal of General Physiology, 2015)

Biological target: T1, frog TRPV3 (Xenopus tropicalis TRPV3) (Xenopus tropicalis, UniProt F6UZP3)
T1 sequence (F6UZP3 1-773): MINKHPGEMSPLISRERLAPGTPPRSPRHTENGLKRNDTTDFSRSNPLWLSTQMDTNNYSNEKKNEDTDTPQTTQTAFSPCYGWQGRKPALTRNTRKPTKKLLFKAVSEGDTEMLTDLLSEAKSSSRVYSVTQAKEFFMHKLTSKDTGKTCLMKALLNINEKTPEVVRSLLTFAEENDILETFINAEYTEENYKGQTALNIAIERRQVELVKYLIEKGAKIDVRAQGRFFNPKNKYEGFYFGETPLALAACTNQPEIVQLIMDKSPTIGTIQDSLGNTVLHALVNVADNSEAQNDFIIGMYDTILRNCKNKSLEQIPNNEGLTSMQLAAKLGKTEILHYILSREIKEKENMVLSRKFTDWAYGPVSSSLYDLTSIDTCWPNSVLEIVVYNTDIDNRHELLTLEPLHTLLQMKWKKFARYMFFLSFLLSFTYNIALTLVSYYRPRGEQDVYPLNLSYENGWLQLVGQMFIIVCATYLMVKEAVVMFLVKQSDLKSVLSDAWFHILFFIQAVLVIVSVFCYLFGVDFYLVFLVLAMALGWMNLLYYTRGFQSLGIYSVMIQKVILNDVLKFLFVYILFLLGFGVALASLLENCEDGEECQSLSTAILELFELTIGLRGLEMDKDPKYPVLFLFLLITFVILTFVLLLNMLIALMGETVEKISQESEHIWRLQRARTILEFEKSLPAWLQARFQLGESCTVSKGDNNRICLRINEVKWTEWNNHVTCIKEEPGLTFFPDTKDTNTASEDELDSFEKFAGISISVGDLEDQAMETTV
Experiment: whole-cell patch clamp, HEK293, Hill fit of current density
Assay type: cell-based

- EC50: 269 ± 28 µM
Structure (SMILES): NCCOB(c1ccccc1)c1ccccc1 [2-APB]
